In patent publication US20080318943A1, “Compounds and Uses Thereof - 848” (ASTRAZENECA AB, priority 2007, published 2008):

Assays:
[1] = biological target: T1, GABAA receptor α1β2γ2 (Homo sapiens, UniProt P14867+P18507); experiment: Two-electrode voltage-clamp potentiation of GABA EC10 current in Xenopus oocytes, GABAA1; type: cell-based; conditions: percentage potentiation of GABA EC10 current divided by that of diazepam
T1 construct: expressed in transfected cells; host or cells: Xenopus laevis oocytes injected with cRNA
T1 sequence (P14867 28-456): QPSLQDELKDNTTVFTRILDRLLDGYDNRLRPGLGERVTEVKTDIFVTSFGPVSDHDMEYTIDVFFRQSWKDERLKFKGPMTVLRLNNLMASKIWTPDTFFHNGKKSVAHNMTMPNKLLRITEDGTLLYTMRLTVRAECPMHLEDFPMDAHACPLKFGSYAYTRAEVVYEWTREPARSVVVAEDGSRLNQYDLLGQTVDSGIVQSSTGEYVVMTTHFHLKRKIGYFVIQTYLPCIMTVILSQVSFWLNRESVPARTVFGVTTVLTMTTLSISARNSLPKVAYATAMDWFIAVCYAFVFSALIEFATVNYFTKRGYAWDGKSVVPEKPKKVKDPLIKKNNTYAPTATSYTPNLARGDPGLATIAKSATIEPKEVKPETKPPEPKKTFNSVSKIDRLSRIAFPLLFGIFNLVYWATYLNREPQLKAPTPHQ
T1 sequence (P47870 25-512 partner limits assumed): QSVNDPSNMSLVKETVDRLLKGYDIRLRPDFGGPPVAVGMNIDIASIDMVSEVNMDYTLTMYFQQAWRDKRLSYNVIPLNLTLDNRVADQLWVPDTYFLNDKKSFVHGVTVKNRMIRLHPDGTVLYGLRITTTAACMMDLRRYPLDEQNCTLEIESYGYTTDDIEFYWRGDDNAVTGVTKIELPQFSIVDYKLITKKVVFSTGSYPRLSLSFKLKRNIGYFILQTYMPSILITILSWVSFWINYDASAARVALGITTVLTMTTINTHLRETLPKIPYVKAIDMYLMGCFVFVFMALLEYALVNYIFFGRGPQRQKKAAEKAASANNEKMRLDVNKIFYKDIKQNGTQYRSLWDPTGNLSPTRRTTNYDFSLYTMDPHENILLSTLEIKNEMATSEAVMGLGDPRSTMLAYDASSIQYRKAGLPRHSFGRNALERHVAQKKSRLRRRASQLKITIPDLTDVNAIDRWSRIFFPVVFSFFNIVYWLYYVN
T1 sequence (P18507 40-475): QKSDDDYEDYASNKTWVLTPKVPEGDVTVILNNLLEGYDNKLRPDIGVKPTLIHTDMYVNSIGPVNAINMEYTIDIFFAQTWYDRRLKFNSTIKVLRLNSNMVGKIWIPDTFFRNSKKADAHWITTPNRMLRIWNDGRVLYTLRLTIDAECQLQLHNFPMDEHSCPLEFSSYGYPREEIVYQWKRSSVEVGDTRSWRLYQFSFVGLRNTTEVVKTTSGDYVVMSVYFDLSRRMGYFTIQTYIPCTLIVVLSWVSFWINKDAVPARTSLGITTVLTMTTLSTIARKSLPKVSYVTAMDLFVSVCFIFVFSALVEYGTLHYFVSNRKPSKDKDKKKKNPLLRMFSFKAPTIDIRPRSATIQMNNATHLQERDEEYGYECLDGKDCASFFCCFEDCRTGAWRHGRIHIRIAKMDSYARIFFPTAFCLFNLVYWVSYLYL
In short: (§1)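 Human GABAA receptors expressed in Xenopus oocytes by cRNA injection (α:β:γ molar ratio ~1:1:10 for α1β2γ2, 1:1:1 for α2β3γ2), recorded 2-10 days later by two-electrode voltage clamp at −60 mV in ND-96, pH 7.5. Modulator preapplied 30 s before GABA at per-oocyte EC10. Peak-current percent potentiation over GABA alone, normalised to diazepam.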

[2] = biological target: T2, GABAA2 receptors (α2, β3, γ2 receptor subunits transfected into Sf9 cells) (Homo sapiens, UniProt P18507+P47869); experiment: GABAA2 Binding Method ([3H]-Flunitrazepam displacement); conditions: [3H]-Flunitrazepam ~2 nM, α2β3γ2 Sf9 membranes, 1 hr at 4° C.
T2 construct: host or cells: Sf9 cells (membranes)
T2 sequence (P47869 29-451): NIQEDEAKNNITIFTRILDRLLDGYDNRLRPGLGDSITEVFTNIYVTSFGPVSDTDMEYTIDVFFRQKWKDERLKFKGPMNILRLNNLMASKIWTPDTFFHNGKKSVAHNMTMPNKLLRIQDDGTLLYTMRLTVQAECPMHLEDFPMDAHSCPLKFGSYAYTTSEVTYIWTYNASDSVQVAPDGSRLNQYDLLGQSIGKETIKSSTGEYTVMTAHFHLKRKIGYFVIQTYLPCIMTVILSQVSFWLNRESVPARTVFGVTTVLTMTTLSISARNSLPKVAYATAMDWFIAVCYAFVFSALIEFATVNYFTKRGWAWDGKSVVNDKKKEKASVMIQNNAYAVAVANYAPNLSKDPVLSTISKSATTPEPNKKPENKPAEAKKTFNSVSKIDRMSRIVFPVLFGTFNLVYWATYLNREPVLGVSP
T2 sequence (P28472 26-473 partner): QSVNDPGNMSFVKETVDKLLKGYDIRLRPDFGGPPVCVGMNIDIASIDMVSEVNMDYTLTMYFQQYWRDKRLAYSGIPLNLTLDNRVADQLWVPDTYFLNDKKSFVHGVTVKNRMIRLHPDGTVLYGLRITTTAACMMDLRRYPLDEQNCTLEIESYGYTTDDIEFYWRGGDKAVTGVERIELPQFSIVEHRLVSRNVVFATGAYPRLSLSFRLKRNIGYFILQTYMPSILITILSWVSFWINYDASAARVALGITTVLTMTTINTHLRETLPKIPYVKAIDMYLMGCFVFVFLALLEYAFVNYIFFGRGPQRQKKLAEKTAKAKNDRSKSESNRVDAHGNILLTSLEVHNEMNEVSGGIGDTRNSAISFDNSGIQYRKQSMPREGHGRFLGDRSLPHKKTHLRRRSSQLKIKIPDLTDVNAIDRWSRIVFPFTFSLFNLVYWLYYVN
T2 sequence (P18507 40-475): as the sequence (P18507 40-475) above
In short: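 Membranes from Sf9 cells expressing α2β3γ2 GABAA receptors incubated with ~2 nM (final) [3H]-flunitrazepam and test compound 1 h at 4 °C, then filtered on GF/B plates with cold-buffer washes. Flumazenil-defined controls; percent of control, IC50 and Ki calculated.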

[3] = biological target: T3, GABAA receptor α2β3γ2 (Homo sapiens, UniProt P18507+P47869); experiment: Two-electrode voltage-clamp potentiation of GABA EC10 current in Xenopus oocytes, GABAA2; type: cell-based; conditions: percentage potentiation of GABA EC10 current divided by that of diazepam
T3 construct: expressed in transfected cells; host or cells: Xenopus laevis oocytes injected with cRNA
T3 sequence (P47869 29-451): as the sequence (P47869 29-451) above
T3 sequence (P28472 26-473 partner): as the sequence (P28472 26-473 partner) above
T3 sequence (P18507 40-475): as the sequence (P18507 40-475) above
In short: as §1

Row | Relative Potentiation for GABAA1 [1] | Ki [2] | Relative Potentiation for GABAA2 [3] | SMILES
1 | 0.062 | 4.12 nM | 0.17 | COc1ccc(F)c(-c2c(F)ccc3c(N)c4c(nc23)CN(C2CC2)C4=O)c1F [9-Amino-2-cyclopropyl-5-(2,6-difluoro-3-methoxyphenyl)-6-fluoro-2,3-dihydropyrrolo[3,4-b]quinolin-1-one]
2 | −0.02 | 8.14 nM | 0.088 | COc1cc(F)c(-c2cccc3c(N)c4c(nc23)CN(C2CC2)C4=O)c(F)c1 [9-Amino-2-cyclopropyl-5-(2,6-difluoro-4-methoxyphenyl)-2,3-dihydropyrrolo[3,4-b]quinolin-1-one]
3 | −0.024 | 18.3 nM | 0.16 | Nc1c2c(nc3c(-c4ccccc4F)cccc13)CN(C1CC1)C2=O [9-Amino-2-cyclopropyl-5-(2-fluorophenyl)-2,3-dihydropyrrolo[3,4-b]quinolin-1-one]
4 | −0.11 | 29.9 nM | 0.1 | Cc1ccc(-c2cccc3c(N)c4c(nc23)CN(C2CC2)C4=O)cn1 [9-Amino-2-cyclopropyl-5-(6-methyl-pyridin-3-yl)-2,3-dihydropyrrolo[3,4-b]quinolin-1-one]
5 | 0.032 | 2.68 nM | 0.13 | COc1cccc(-c2c(F)ccc3c(N)c4c(nc23)CN(C2CC2)C4=O)c1F [9-Amino-2-cyclopropyl-6-fluoro-5-(2-fluoro-3-methoxyphenyl)-2,3-dihydropyrrolo[3,4-b]quinolin-1-one]
6 | 0.002 | 7.54 nM | 0.15 | COc1ccc(F)c(-c2c(F)ccc3c(N)c4c(nc23)CN(C2CC2)C4=O)c1 [9-Amino-2-cyclopropyl-6-fluoro-5-(2-fluoro-5-methoxyphenyl)-2,3-dihydropyrrolo[3,4-b]quinolin-1-one]
7 | 0.02 | 3.72 nM | 0.2 | COc1ccccc1-c1c(F)ccc2c(N)c3c(nc12)CN(C1CC1)C3=O [9-Amino-2-cyclopropyl-6-fluoro-5-(2-methoxyphenyl)-2,3-dihydropyrrolo[3,4-b]quinolin-1-one]
8 | 0.09 | 25.5 nM | 0.18 | CCN1Cc2nc3c(-c4ccc(F)c(OC)c4)cccc3c(N)c2C1=O [9-Amino-2-ethyl-5-(4-fluoro-3-methoxyphenyl)-2,3-dihydropyrrolo[3,4-b]quinolin-1-one]
9 | 0.08 | 23.4 nM | 0.14 | CCN1Cc2nc3c(-c4cnccc4C)cccc3c(N)c2C1=O [9-Amino-2-ethyl-5-(4-methylpyridin-3-yl)-2,3-dihydropyrrolo[3,4-b]quinolin-1-one]
10 | 0.054 | 27.4 nM | 0.17 | CCN1Cc2nc3c(-c4cc(F)ccc4OC)cccc3c(N)c2C1=O [9-Amino-2-ethyl-5-(5-fluoro-2-methoxyphenyl)-2,3-dihydropyrrolo[3,4-b]quinolin-1-one]
11 | 0.005 | 1.4 nM | 0.17 | CCN1Cc2nc3c(-c4cc(OC)ccc4F)c(F)ccc3c(N)c2C1=O [9-Amino-2-ethyl-6-fluoro-5-(2-fluoro-5-methoxyphenyl)-2,3-dihydropyrrolo[3,4-b]quinolin-1-one]
12 | −0.12 | 3.47 nM | 0.093 | CCN1Cc2nc3c(-c4c(F)cccc4OC)c(F)ccc3c(N)c2C1=O [9-Amino-2-ethyl-6-fluoro-5-(2-fluoro-6-methoxyphenyl)-2,3-dihydropyrrolo[3,4-b]quinolin-1-one]
13 | −0.0025 | 2.01 nM | 0.094 | CCN1Cc2nc3c(-c4cnccc4C)c(F)ccc3c(N)c2C1=O [9-Amino-2-ethyl-6-fluoro-5-(4-methylpyridin-3-yl)-2,3-dihydropyrrolo[3,4-b]quinolin-1-one]
14 | 0.072 | 4.84 nM | 0.11 | CCN1Cc2nc3c(-c4ccc(OC)cc4OC)c(F)ccc3c(N)c2C1=O [9-Amino-5-(2,4-dimethoxy-phenyl)-2-ethyl-6-fluoro-2,3-dihydropyrrolo[3,4-b]quinolin-1-one]
15 | 0.068 | 33.2 nM | 0.14 | COc1ccc(Cl)c(-c2cccc3c(N)c4c(nc23)CN(C2CC2)C4=O)c1 [9-Amino-5-(2-chloro-5-methoxyphenyl)-2-cyclopropyl-2,3-dihydropyrrolo[3,4-b]quinolin-1-one]
16 | 0.09 | 32.5 nM | 0.11 | COc1cccc(-c2cccc3c(N)c4c(nc23)CN(C)C4=O)c1F [9-Amino-5-(2-fluoro-3-methoxyphenyl)-2-methyl-2,3-dihydropyrrolo[3,4-b]quinolin-1-one]
17 | 0.11 | 3.75 nM | 0.36 | COc1cccc(F)c1-c1cccc2c(N)c3c(nc12)CN(C1CC(C)C1)C3=O (stereo not drawn) [9-Amino-5-(2-fluoro-6-methoxyphenyl)-2-(3-methylcyclobutyl)-2,3-dihydropyrrolo[3,4-b]quinolin-1-one]
18 | −0.16 | 26.8 nM | 0.15 | COc1cccc(F)c1-c1cccc2c(N)c3c(nc12)CN(C(C)C)C3=O [9-Amino-5-(2-fluoro-6-methoxyphenyl)-2-isopropyl-2,3-dihydropyrrolo[3,4-b]quinolin-1-one]
19 | 0.033 | 2.22 nM | 0.27 | CCN1Cc2nc3c(-c4cc(Cl)ccc4OC)c(F)ccc3c(N)c2C1=O [9-Amino-5-(5-chloro-2-methoxyphenyl)-2-ethyl-6-fluoro-2,3-dihydropyrrolo[3,4-b]quinolin-1-one]
20 | −0.02 | 8.14 nM | 0.088 | COc1cccc(F)c1-c1c(F)ccc2c(N)c3c(nc12)CN(C)C3=O [9-Amino-6-fluoro-5-(2-fluoro-6-methoxyphenyl)-2-methyl-2,3-dihydropyrrolo[3,4-b]quinolin-1-one]
21 | 0.23 | 1.5 nM | 0.37 | COc1ccc(CN2Cc3nc4c(-c5cnccc5OC)cccc4c(N)c3C2=O)cc1OC [9-amino-2-(3,4-dimethoxybenzyl)-5-(4-methoxypyridin-3-yl)-2,3-dihydro-1H-pyrrolo[3,4-b]quinolin-1-one]
22 | 0.32 | 3.35 nM | 0.52 | COc1ccc(CN2Cc3nc4c(-c5cnccc5OC)cccc4c(N)c3C2=O)cc1 [9-amino-2-(4-methoxybenzyl)-5-(4-methoxypyridin-3-yl)-2,3-dihydro-1H-pyrrolo[3,4-b]quinolin-1-one]
23 | −0.07 | 23.9 nM | 0.025 | Cc1cccc(C)c1-c1cccc2c(N)c3c(nc12)CN(C1CC1)C3=O [9-amino-2-cyclopropyl-5-(2,6-dimethylphenyl)-2,3-dihydro-1H-pyrrolo[3,4-b]quinolin-1-one]
24 | 0.088 | 55.3 nM | 0.08 | COc1ncc(-c2cccc3c(N)c4c(nc23)CN(C2CC2)C4=O)cc1C [9-amino-2-cyclopropyl-5-(6-methoxy-5-methylpyridin-3-yl)-2,3-dihydro-1H-pyrrolo[3,4-b]quinolin-1-one]
25 | −0.036 | 7.27 nM | 0.055 | COc1ccc(-c2c(F)ccc3c(N)c4c(nc23)CN(C2CC2)C4=O)c(F)c1 [9-amino-2-cyclopropyl-6-fluoro-5-(2-fluoro-4-methoxyphenyl)-2,3-dihydro-1H-pyrrolo[3,4-b]quinolin-1-one]
26 | −0.008 | 7.14 nM | 0.036 | CCN1Cc2nc3c(-c4ccc(OC)cc4F)cccc3c(N)c2C1=O [9-amino-2-ethyl-5-(2-fluoro-4-methoxyphenyl)-2,3-dihydro-1H-pyrrolo[3,4-b]quinolin-1-one]
27 | 0.052 | 22.6 nM | 0.068 | CCN1Cc2nc3c(-c4cccc(F)c4OC)cccc3c(N)c2C1=O [9-amino-2-ethyl-5-(3-fluoro-2-methoxyphenyl)-2,3-dihydro-1H-pyrrolo[3,4-b]quinolin-1-one]

Row | SMILES | Relative Potentiation for GABAA1 [1] | Ki [2] | Relative Potentiation for GABAA2 [3]
28 | Cc1ccc(-c2cccc3c(N)c4c(nc23)CN(C2CC2)C4=O)c(F)n1 [9-Amino-2-cyclopropyl-5-(2-fluoro-6-methylpyridin-3-yl)-2,3-dihydropyrrolo[3,4-b]quinolin-1-one] | 0 | 43.4 nM | 0.18
29 | COc1ncc(-c2cccc3c(N)c4c(nc23)CN(Cc2ccc(OC)c(OC)c2)C4=O)c(OC)n1 [9-amino-2-(3,4-dimethoxybenzyl)-5-(2,4-dimethoxypyrimidin-5-yl)-2,3-dihydro-1H-pyrrolo[3,4-b]quinolin-1-one] | 0.19 | 13.5 nM | 0.42
